Results reported in US6136347A, “Flavor-masked pharmaceutical compositions” (Bayer Aktiengesellschaft, priority 1992, dated 2000).
Where a name gives a salt, the structure may show the parent alone.

Experiment: in vitro release (dissolution) of active ingredient from microcapsules in strongly acidic (pH 1) and weakly acidic (pH 4.5) medium
Assay type: physicochemical
Conditions: for release of active ingredient from microcapsules (in words): strongly acidic and weakly acidic medium (pH 1 and 4.5)
Excerpt: FIG. 1 is a graph depicting percent release as a function of time of an active ingredient from microcapsules prepared by spray solidification in carnauba wax.
FIGS. 2a and 2b are two graphs depicting percent release as a function of time of an active ingredient in, respectively, the hydrate and anhydrate forms.
FIGS. 3a and 3b are two graphs depicting percent release as a function of time of an active ingredient in, respectively, the hydrate and anhydrate forms.
FIGS. 4a and 4b are two graphs depicting percent release as a function of time of an active ingredient in, respectively, the hydrate and anhydrate forms.
FIGS. 5a and 5b are two graphs depicting percent release as a function of time of an active ingredient in, respectively, the hydrate and anhydrate forms.

| Compound | release of active ingredient from microcapsules (in words) | release of active ingredient from wax-embedded microcapsules (in words) (embedded by method of EP-A-273,890 (carnauba wax, beeswax, ethylcellulose), FIG. 1, spray solidification in carnauba wax) | release of active ingredient from microcapsules (in words) (listed as ciprofloxacin betaine) |
| --- | --- | --- | --- |
| O=C(O)c1cn(C2CC2)c2cc(N3CCNCC3)c(F)cc2c1=O [ciprofloxacin HCl] | delayed | – | – |
| O=C(O)c1cn(C2CC2)c2cc(N3CCNCC3)c(F)cc2c1=O [ciprofloxacin] | – | does not lead, however, to the required rapid release of active ingredient | a rapid release of active ingredient is guaranteed |
